Tested on: spontaneous recurrent seizures
Assay: "spontaneous recurrent seizures" (SRS) model of epilepsy
Assay type: in vivo
Details: rat, 20 mg/kg/day i.v. for 10 day
Experimental: The “spontaneous recurrent seizures” (SRS) model of epilepsy is used to evaluate candidate compounds in a model for Phase 1 epileptogenesis (see, e.g., Mello, E. et al., Epilepsia (1993) 34:985; Cavalheiro, J. et al., Epilepsia (1991) 32:778). In the SRS model, an adult male Sprague-Dawley rat (c. 260 g) is given kainic acid by injection ([…].). Within 25 minutes, the animal enters status epilepticus, which typically lasts for 15-20 hours (although about 10% of animals die at this stage). The rat is allowed to spontaneously recover and is given food and water ad lib. and maintained on a 12 hour light/dusk cycle. Beginning on about day 13-15, the rats develop spontaneous recurrent seizures, which occur at the rate of about 4-5 per week. The rats are videotaped 8 hours per day, and the videotapes are reviewed for behavioral seizures (including head nodding, forelimb clonus, and rearing), which are counted. The animals are watched for a few weeks to a few months (2 weeks to three months), permitting evaluation of a sufficient number of seizures. An experimental compound for evaluation can be administered at either of two times: Time 1, on Day 1, after the cessation of status epilepticus but before the onset of SRS; or Time 2, on Day 30, when the rats have been experiencing SRS for about two weeks. […]

## O=C1NC(=O)C(c2ccccc2)(c2ccccc2)N1 [phenytoin]
Administered at Time 1 (Day 1, before onset of SRS)
  preventing the onset of seizures: ineffective
Administered at Time 2 (Day 30, established SRS)
  effective at decreasing seizure frequency by 50% or more: 75%
